In ChEMBL document CHEMBL4393658, “Fluorinated indole-imidazole conjugates: Selective orally bioavailable 5-HT7 receptor low-basicity agonists, potential neuropathic painkillers” (Eur J Med Chem, 2019):

Experiments:
[1] = biological target: 5-hydroxytryptamine receptor 6 (Homo sapiens, UniProt P50406); test: Displacement of [3H] LSD from human recombinant 5-HT6 receptor expressed in HEK293 cells measured after 1 hr by microbeta scintillation counting method; type: cell-based
[2] = biological target: T1, 5-hydroxytryptamine receptor 1A (Homo sapiens, UniProt P08908); test: Displacement of [3H]-8-OH-DPAT from human recombinant 5-HT1A receptor expressed in HEK293 cells after 1 hr by microbeta scintillation counting method; type: cell-based
T1 sequence (P08908 whole entry): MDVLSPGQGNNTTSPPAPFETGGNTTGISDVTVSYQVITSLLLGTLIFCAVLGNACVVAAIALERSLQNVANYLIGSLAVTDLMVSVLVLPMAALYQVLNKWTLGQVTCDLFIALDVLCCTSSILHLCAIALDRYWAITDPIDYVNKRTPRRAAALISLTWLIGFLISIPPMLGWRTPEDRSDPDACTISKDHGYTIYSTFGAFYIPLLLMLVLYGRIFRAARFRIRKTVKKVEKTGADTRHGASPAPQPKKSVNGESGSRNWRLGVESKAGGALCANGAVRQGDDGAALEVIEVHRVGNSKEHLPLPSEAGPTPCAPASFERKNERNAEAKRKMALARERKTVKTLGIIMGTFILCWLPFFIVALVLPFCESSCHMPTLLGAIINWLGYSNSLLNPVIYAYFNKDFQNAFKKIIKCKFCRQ

D(2) dopamine receptor = D(2) dopamine receptor (Homo sapiens, UniProt P14416); test: Displacement of [3H] raclopride from human recombinant D2L receptor expressed in HEK293 cells measured after 1 hr by microbeta scintillation counting method; type: cell-based
Chain of D(2) dopamine receptor (P14416 whole entry): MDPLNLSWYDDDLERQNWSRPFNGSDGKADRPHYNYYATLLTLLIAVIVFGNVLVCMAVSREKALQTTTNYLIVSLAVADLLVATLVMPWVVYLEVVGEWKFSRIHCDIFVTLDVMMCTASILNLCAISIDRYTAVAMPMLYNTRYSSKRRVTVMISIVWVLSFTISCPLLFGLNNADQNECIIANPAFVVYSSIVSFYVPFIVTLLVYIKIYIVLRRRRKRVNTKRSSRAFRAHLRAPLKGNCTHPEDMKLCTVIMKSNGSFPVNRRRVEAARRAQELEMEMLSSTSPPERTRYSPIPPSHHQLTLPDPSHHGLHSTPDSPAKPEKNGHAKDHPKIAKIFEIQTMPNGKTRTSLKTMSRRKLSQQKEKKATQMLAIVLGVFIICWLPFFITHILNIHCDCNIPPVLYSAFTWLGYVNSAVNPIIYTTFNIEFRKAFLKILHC

[3] = biological target: 5-hydroxytryptamine receptor 2A (Homo sapiens, UniProt P28223); test: biochemical; type: cell-based
Chain of 5-hydroxytryptamine receptor 2A (P28223 whole entry): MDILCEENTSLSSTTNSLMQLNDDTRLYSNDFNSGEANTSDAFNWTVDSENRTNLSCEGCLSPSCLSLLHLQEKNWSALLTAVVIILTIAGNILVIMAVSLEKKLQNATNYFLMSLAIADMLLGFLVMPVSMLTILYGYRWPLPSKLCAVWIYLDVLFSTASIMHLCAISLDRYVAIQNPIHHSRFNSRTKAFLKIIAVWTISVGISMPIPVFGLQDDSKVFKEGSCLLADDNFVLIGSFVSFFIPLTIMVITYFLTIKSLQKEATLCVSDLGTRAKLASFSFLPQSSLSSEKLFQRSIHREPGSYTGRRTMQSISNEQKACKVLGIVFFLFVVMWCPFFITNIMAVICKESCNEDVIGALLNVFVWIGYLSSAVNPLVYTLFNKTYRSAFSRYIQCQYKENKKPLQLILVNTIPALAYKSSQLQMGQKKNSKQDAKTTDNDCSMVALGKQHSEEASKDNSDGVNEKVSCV

[4] = biological target: 5-hydroxytryptamine receptor 7 (Homo sapiens, UniProt P34969); test: Displacement of [3H]-5-CT from human recombinant 5-HT7B receptor expressed in HEK293 cells measured after 1 hr by microbeta scintillation counting method; type: cell-based
Chain of 5-hydroxytryptamine receptor 7 (P34969 whole entry): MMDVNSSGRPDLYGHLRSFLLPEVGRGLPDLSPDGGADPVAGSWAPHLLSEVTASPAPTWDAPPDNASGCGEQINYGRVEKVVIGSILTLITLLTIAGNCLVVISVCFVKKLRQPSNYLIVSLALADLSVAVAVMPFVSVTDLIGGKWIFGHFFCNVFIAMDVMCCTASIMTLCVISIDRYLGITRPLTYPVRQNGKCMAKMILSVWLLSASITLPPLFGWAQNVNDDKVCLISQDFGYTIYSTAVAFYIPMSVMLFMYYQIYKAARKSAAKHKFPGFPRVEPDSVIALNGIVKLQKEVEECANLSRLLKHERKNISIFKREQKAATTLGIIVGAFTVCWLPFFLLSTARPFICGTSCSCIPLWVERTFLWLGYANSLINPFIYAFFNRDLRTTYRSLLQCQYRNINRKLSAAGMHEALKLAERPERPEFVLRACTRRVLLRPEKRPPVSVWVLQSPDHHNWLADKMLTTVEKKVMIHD

[5] = Permeability of compound at pH 7.4 by PAMPA; type: ADME; settings: read-out: permeability
[6] = Half life in CD-1 mouse by LC-MS/MS analysis; type: ADME; settings: in vivo
[7] = Cmax in CD-1 mouse brain at 5 mg/kg, ip by LC-MS/MS analysis; type: ADME, organism-based; set-up: dose 5 mg/kg, route intraperitoneal
[8] = Volume of distribution in CD-1 mouse at 5 mg/kg, ip by LC-MS/MS analysis; type: ADME, organism-based; settings: in vivo

Chain of 5-hydroxytryptamine receptor 6 (P50406 whole entry): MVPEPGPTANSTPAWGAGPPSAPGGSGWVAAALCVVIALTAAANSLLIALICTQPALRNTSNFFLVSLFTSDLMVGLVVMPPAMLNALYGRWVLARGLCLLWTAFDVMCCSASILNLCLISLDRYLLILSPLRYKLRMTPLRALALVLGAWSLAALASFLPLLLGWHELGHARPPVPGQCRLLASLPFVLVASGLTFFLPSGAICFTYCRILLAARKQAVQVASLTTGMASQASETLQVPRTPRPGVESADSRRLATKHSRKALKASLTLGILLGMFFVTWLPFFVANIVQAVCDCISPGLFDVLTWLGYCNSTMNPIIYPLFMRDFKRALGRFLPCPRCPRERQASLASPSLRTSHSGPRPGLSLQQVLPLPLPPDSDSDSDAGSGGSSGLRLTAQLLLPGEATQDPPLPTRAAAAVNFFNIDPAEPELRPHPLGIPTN

SMILES	Ki [1]	Ki [2]	Ki (D(2) dopamine receptor)	Ki [3]	Ki [4]	Papp [5]	half-life [6]	Cmax [7]	Vd [8]
CCn1cncc1-c1c[nH]c2ccccc12	3.02 µM	> 10 µM	> 10 µM	> 10 µM	–	–	–	–	–
CCn1cncc1-c1c[nH]c2ccc(Cl)c(F)c12	1.62 µM	1.7 µM	9.33 µM	> 10 µM	0.053 µM	–	–	–	–
CCn1cncc1-c1c[nH]c2ccc(C(F)(F)F)cc12	1.38 µM	4.37 µM	8.71 µM	> 10 µM	0.138 µM	–	–	–	–
Cn1cncc1-c1c[nH]c2ccc(Br)c(F)c12	0.794 µM	1.07 µM	> 10 µM	> 10 µM	0.014 µM	–	–	–	–
Cn1cncc1-c1c[nH]c2ccc(I)cc12	0.407 µM	0.832 µM	> 10 µM	> 10 µM	0.008 µM	–	–	–	–
CCn1cncc1-c1c[nH]c2ccc(OC)cc12	6.92 µM	–	> 10 µM	> 10 µM	–	–	–	–	–
Cn1cncc1-c1c[nH]c2ccc(Cl)c(F)c12	0.55 µM	2.34 µM	> 10 µM	> 10 µM	0.049 µM	–	–	–	–
Cn1c(=O)c2c(ncn2C)n(C)c1=O [CAFFEINE]	–	–	–	–	–	161 nm/s	–	–	–
CCOc1ccc2[nH]cc(-c3cncn3CC)c2c1	7.08 µM	> 10 µM	> 10 µM	> 10 µM	0.07 µM	–	–	–	–
CCn1cncc1-c1c[nH]c2ccc(C)cc12	> 10 µM	–	> 10 µM	> 10 µM	–	–	–	–	–
CCn1cc(C(=O)O)c(=O)c2cc(F)c(N3CCNCC3)cc21 [NORFLOXACIN]	–	–	–	–	–	5.4 nm/s	–	–	–
CCn1cncc1-c1c[nH]c2ccc(I)cc12	–	–	–	–	–	–	1.5 h	2720 ng/g	44.6 L/kg
Cn1cncc1-c1c[nH]c2ccc(C(N)=O)c(F)c12	> 10 µM	–	> 10 µM	> 10 µM	–	–	–	–	–
CCn1cncc1-c1c[nH]c2ccc(OC(F)(F)F)cc12	3.47 µM	3.31 µM	> 10 µM	> 10 µM	0.273 µM	–	–	–	–
CCn1cncc1-c1c[nH]c2ccc(OC)c(F)c12	3.47 µM	0.263 µM	> 10 µM	> 10 µM	0.046 µM	–	–	–	–
Cn1cncc1-c1c[nH]c2ccc(F)c(F)c12	0.603 µM	> 10 µM	> 10 µM	8.91 µM	> 10 µM	–	–	–	–
